The record followed here is US8889854B2, “C-17 bicyclic amines of triterpenoids with HIV maturation inhibitory activity” (priority 2012, dated 2014).

This assay relates to recombinant NL4-3 virus (Renilla luciferase in nef, Gag P373S; NLRluc). In words: HIV Cell Culture Assay (luciferase reporter virus in MT-2 cells). The format is cell-based. The conditions noted are these: luciferase activity. On the procedure: MT-2 cells and 293T cells were obtained from the NIH AIDS Research and Reference Reagent Program. MT-2 cells were propagated in RPMI 1640 media supplemented with 10% heat inactivated fetal bovine serum, […]. The 293T cells were propagated in DMEM media supplemented with 10% heat inactivated fetal bovine serum (FBS), 100 units/mL penicillin G and 100 μg/mL streptomycin. The proviral DNA clone of NL4-3 was obtained from the NIH AIDS Research and Reference Reagent Program. A recombinant NL4-3 virus, in which a section of the nef gene from NL4-3 was replaced with the Renilla luciferase gene, was used as a reference virus. In addition, residue Gag P373 was converted to P373S. Briefly, the recombinant virus was prepared by transfection of the altered proviral clone of NL4-3. Transfections were performed in 293T cells using LipofectAMINE PLUS from Invitrogen (Carlsbad, Calif.), according to manufacturer's instruction. The virus was titered in MT-2 cells using luciferase enzyme activity as a marker. Luciferase was quantitated using the Dual Luciferase kit from Promega (Madison, Wis.), with modifications to the manufacturer's protocol. The diluted Passive Lysis solution was pre-mixed with the re-suspended Luciferase Assay Reagent and the re-suspended Stop & Glo Substrate (2:1:1 ratio). Fifty (50) μL of the mixture was added to each aspirated well on assay plates and luciferase activity was measured immediately on a Wallac TriLux (Perkin-Elmer). Antiviral activities of inhibitors toward the recombinant virus were quantified by measuring luciferase activity in cells infected for 4-5 days with NLRluc recombinants in the presence serial dilutions of the inhibitor. Table 1 is the key for the data in Table 2.
A general note: A reporter such as luciferase makes a cellular process visible.

Where [1] appears, read: Renilla, NL43, MT-2 cells infected for 4-5 days with NLRluc recombinants, reported as group A/B.
Setting [2] is: Renilla, NL43, MT-2 cells infected for 4-5 days with NLRluc recombinants.

With `C=C(C)[C@@H]1CC[C@]2(NCCN3C[C@H]4C[C@@H]3CS4(=O)=O)CC[C@]3(C)[C@H](CC[C@@H]4[C@@]5(C)CC=C(C6=CC7C(C6)C7C(=O)O)C(C)(C)[C@@H]5CC[C@]43C)[C@@H]12` (single isomer, unassigned) [Example B4], the EC50 (usually the concentration needed to bring the measured effect to its halfway point) under setting [1] is below 100 nM.
With `C=C(C)[C@@H]1CC[C@]2(NCCN3C[C@H]4C[C@@H]3CS4(=O)=O)CC[C@]3(C)[C@H](CC[C@@H]4[C@@]5(C)CC=C(C6=CC7C(C6)C7C(=O)O)C(C)(C)[C@@H]5CC[C@]43C)[C@@H]12` (single isomer, unassigned) [Example B5], the EC50 (MT-2 cells infected for 4-5 days with NLRluc recombinants, reported as group A/B) is below 100 nM.
As for `C=C(C)[C@@H]1CC[C@]2(NCCN3C[C@@H]4C[C@H]3CO4)CC[C@]3(C)[C@H](CC[C@@H]4[C@@]5(C)CC=C(C6=CC7C(C6)C7C(=O)O)C(C)(C)[C@@H]5CC[C@]43C)[C@@H]12` (single isomer, unassigned) [Example B6], the EC50 under setting [2] worked out at 1.42 nM.
As for `C=C(C)[C@@H]1CC[C@]2(NCCN3C[C@@H]4C[C@H]3CO4)CC[C@]3(C)[C@H](CC[C@@H]4[C@@]5(C)CC=C(C6=CC7C(C6)C7C(=O)O)C(C)(C)[C@@H]5CC[C@]43C)[C@@H]12` (single isomer, unassigned) [Example B7], under “MT-2 cells infected for 4-5 days with NLRluc recombinants”, the EC50 worked out at 2.28 nM.
In the case of `C=C(C)[C@@H]1CC[C@]2(NC(=O)CN3C[C@@H]4CC[C@H]3C4)CC[C@]3(C)[C@H](CC[C@@H]4[C@@]5(C)CC=C(c6ccc(C(=O)O)cc6)C(C)(C)[C@@H]5CC[C@]43C)[C@@H]12` [Example 1, 4-((1R,3aS,5aR,5bR,7aR,11aS,11bR,13aR,13bR)-3a-(2-((1S,4R)-2-azabicyclo[2.2.1]heptan-2-yl)acetamido)-5a,5b,8,8,11a-pentamethyl-1-(prop-1-en-2-yl)-2,3,3a,4,5,5a,5b,6,7,7a,8,11,11a,11b,12,13,13a,13b-octadecahydro-1H-cyclopenta[a]chrysen-9-yl)benzoic acid], the EC50 under setting [2] was determined as 3.65 nM.
Consider `C=C(C)[C@@H]1CC[C@]2(NC(=O)CN3C[C@@H]4C[C@H]3CS4(=O)=O)CC[C@]3(C)[C@H](CC[C@@H]4[C@@]5(C)CC=C(c6ccc(C(=O)O)cc6)C(C)(C)[C@@H]5CC[C@]43C)[C@@H]12` [Example 2, 4-((1R,3aS,5aR,5bR,7aR,11aS,11bR,13aR,13bR)-3a-(2-((1S,4S)-2,2-dioxido-2-thia-5-azabicyclo[2.2.1]heptan-5-yl)acetamido)-5a,5b,8,8,11a-pentamethyl-1-(prop-1-en-2-yl)-2,3,3a,4,5,5a,5b,6,7,7a,8,11,11a,11b,12,13,13a,13b-octadecahydro-1H-cyclopenta[a]chrysen-9-yl)benzoic acid], for which, under setting [2], the EC50 was 1.93 nM.
For the molecule `C=C(C)[C@@H]1CC[C@]2(NC(=O)CN3C[C@@H]4C[C@H]3CN4Cc3ccccc3)CC[C@]3(C)[C@H](CC[C@@H]4[C@@]5(C)CC=C(c6ccc(C(=O)O)cc6)C(C)(C)[C@@H]5CC[C@]43C)[C@@H]12` [Example 3, 4-((1R,3aS,5aR,5bR,7aR,11aS,11bR,13aR,13bR)-3a-(2-((1S,4S)-5-benzyl-2,5-diazabicyclo[2.2.1]heptan-2-yl)acetamido)-5a,5b,8,8,11a-pentamethyl-1-(prop-1-en-2-yl)-2,3,3a,4,5,5a,5b,6,7,7a,8,11,11a,11b,12,13,13a,13b-octadecahydro-1H-cyclopenta[a]chrysen-9-yl)benzoic acid], the EC50 under setting [1] was below 100 nM.
